Consider 91 molecules from a melting point compilation (Tetko et al.; mined from patent text by program, amines drawn as free bases though some values may be those of a salt).

SMILES strings stand for the structures.

For orientation: melting point means the temperature of the solid-liquid transition.

`CCCCCCN1Cc2cc3ccccc3n2Cc2ccccc21` came in with a melting point of 45 °C. For `COc1cccc(CCC(=O)c2c[nH]cn2)c1OC` the value was 120 to 125 °C; for `O=C1CC(c2ccccc2)CC(=O)O1`, 102 to 103 °C; for `CCOC(=O)c1cn(C2CC2)c2cc(Br)c(F)cc2c1=O`, 251 to 253 °C. For `CCn1ncc2c3c(NCc4ccc(OC)c(Cl)c4)nnc(N4CCC(O)CC4)c3cnc21` the value was 109 to 110 °C; for `O=C(Cn1nnc2ccccc21)Nc1ccc(-n2nc(C3CC3)cc2C2CC2)c(F)c1`, 201 to 203 °C. Consider `N#Cc1nn(-c2c(Cl)cc(C(F)(F)F)cc2Cl)cc1OC(F)F`, for which the melting point fell in the range of 85 to 87 °C. For `C[C@H]1CCCC(C)(C)[C@@H]1[C@H](O)c1ccccc1`, the melting point is 32 to 34 °C. For `Cc1ccc(S(=O)(=O)N2[C@@H](C(=O)O)CC[C@H]2c2ccc(F)cc2)cc1` (racemic) the value was 166 °C; for `CN(C)C1CCc2[nH]c3ccc(CO)cc3c2C1` (stereo unspecified), 195 to 197 °C. For `Cc1ncccc1C(N)=O` the value was 160 to 163 °C; for `O=C(NCC1CC1)c1cccnc1Oc1cncc(Cl)c1`, 105 to 107 °C.

`O=c1oc(-c2ccccc2)cc(O)c1C(CC1CC1)SCc1ccccc1` (stereo unspecified) yielded a melting point of 59 to 61 °C. For the molecule `Cc1cc(C(O)=S)c(Cl)cc1Cl`, the melting point amounted to 187 °C. `NS(=O)(=O)c1cc2c(s1)SCCCC2=O` yielded a melting point of 185 to 186 °C. `CNC(=O)NN(CC(=O)OC)c1cccc(Cl)c1` returned a melting point of 121 to 122 °C.

Take `O=C1CCCc2ccc(Nc3ncc(Cl)c(Nc4ccccc4S(=O)(=O)N4CCCC4)n3)cc2N1`: the melting point was in the range of 249 to 251 °C. With `CC(C)(CO)NS(=O)(=O)c1cc(NC(=O)c2cnn3c(C(F)(F)F)cc(-c4ccc(C(F)(F)F)c(OCC(F)(F)F)c4)nc23)c(Cl)s1` the figure was 264 °C; with `CC(=O)OC1CCC2(C)C(=CCC3C2CCC2(C)C(n4nccn4)=C(C=O)CC32)C1` (stereo unspecified), 145 to 148 °C. For `Cc1cc(Cl)ccc1N=c1ssnc1Cl` the value was 130 to 131 °C. For the molecule `O=C1NC(=O)c2c1c(-c1ccccc1)cc1c2c2cc(O)ccc2n1CCCBr`, the melting point lay in the range of 280 to 282 °C. `CCOC(=O)c1cnc2c(-c3cccc(Cl)c3)cnn2c1` registered a melting point of 136 °C. For `O=C(O)Cc1cc(C(=O)c2ccc([N+](=O)[O-])cc2)ccc1O` the value was 213 °C; for `Nc1ccccc1Nc1ccccn1`, 124 to 125 °C; for `COc1ccc(-c2ccc(O)c(C3(C)CCCCC3)c2)cc1CC1SC(N2CCCC2)=NC1=O` (stereo unspecified), 121 to 122 °C. With `CCCc1c(OCCCOc2ccccc2C(=O)NCCCCc2cccnc2)ccc(C(C)=O)c1O` the figure was 104 to 107 °C; with `Cn1c(C(F)(F)F)cc(=O)n(-c2ccc3snc(C(Cl)Br)c3c2)c1=O` (stereo unspecified), 93 to 96 °C; with `CC1(C)c2ccc(C(O)CN3CCN(c4n[nH]c5ccccc45)CC3)cc2C(C)(C)C1O` (stereo unspecified), 104 to 110 °C. For `ON=C(c1ccccc1)c1ccc(OCCCCOc2ccc(C(=NO)c3ccccc3)cc2)cc1` the value was 154 to 156 °C. `CN(C)/C=C/C(=C(C#N)C#N)c1ccc2cc(N(C)C)ccc2c1` had a melting point of 213 to 215 °C. `O=C(C1CC1)N1CC2CC2(c2ccccc2)C1` (stereo unspecified) showed a melting point of 164 to 165 °C. Regarding `CC(=O)OC1C(Oc2cc(C)cc(O)c2C(=O)CCc2ccc3occc3c2)OC(CO)C(O)C1OC(C)=O` (stereo unspecified), the melting point is 151 to 153 °C. With `CS(=O)(=O)c1ccc(C(CC2CCCC2)C(=O)Nc2ccc(C(=O)O)cn2)cc1` (stereo unspecified) the figure was 191 to 193 °C. `CCN(CC)C(=S)SCC(c1cccc2ccccc12)[N+](=O)[O-]` (stereo unspecified) returned a melting point of 136 to 138 °C. With `COc1ccc(C=CC(=O)Nc2cnc3ccc(Cl)cc3c2-c2ccccc2Cl)cc1OC` the figure was 208 to 209 °C; with `COC(=O)c1ccc2c(c1)C1(O)C(=O)c3ccccc3C1(O)O2` (stereo unspecified), 220 to 223 °C; with `COC(=O)c1cc(O)c2c(c1)c1ccccc1n2C`, 204 to 206 °C.

The molecule `COC(=O)c1ccc(Cn2c3c(c4cc(F)cc(F)c42)CCCC3CC(=O)O)cc1` (stereo unspecified) showed a melting point of 169 to 170 °C. As for `CNCCNCc1ccc(-c2cc3ncnc(Nc4ccc5[nH]ccc5c4)c3s2)cc1`, the melting point was 93 to 105 °C.

On to `CN(C)CCCN1C(=O)Nc2ccccc2C1C1CCCCC1` (stereo unspecified), for which the melting point lay in the range of 124 to 125 °C.

With `CC(=O)NCC1CN(c2ccc(N3CCN(c4nc5cc(F)ccc5o4)CC3)c(F)c2)C(=O)O1` (stereo unspecified), the melting point was in the range of 226 to 228 °C. For `COc1cc(Nc2c(C#N)cnc3cc(Br)c(OC)cc23)c(Cl)cc1Cl` the value was > 250 °C; for `O=C1CN(C(=O)N2CCCC2)c2c(F)cccc2N1`, 126 to 132 °C; for `CS(=O)(=O)c1ccc(-c2cnn(-c3ccsc3)c(=O)c2-c2ccc(F)cc2)cc1`, 200 to 202 °C. For the molecule `Cc1cn(COCCI)c(=O)[nH]c1=O`, the melting point was in the range of 112 to 115 °C. `c1ccc2c(c1)COc1ccccc1-2`: the melting point is 97 °C. `CC(=O)c1ccc(Cl)cn1` came in with a melting point of 58 to 65 °C. In turn, `COC(=O)NNC(=O)c1ccc([N+](=O)[O-])o1` yielded a melting point of 155 °C.

As to `O=C(Nc1ccc(-n2nc(C(F)(F)F)cc2C(F)(F)F)cc1)c1c(Cl)ccc([N+](=O)[O-])c1Cl`, the melting point lay in the range of 160 to 161 °C. Molecule `COc1ccc(C(=O)N2CSCC2=O)cc1` returned a melting point of 123 to 124 °C. For `O=C1NCC(Cc2ccccc2F)O1` (stereo unspecified) the value was 113 to 114 °C; for `NC(=O)c1cc2c(cc1OCC1CCCCC1)OCCCC2=O`, 185 to 186 °C; for `CC(C)(O)CN1c2cccnc2C(N)=CC1Cc1ccccc1` (stereo unspecified), 211 to 213 °C. With `O=C1c2c(Cl)cccc2-n2cnc(-c3nc(C4CC4)no3)c2[C@@H]2CCCN12`, the melting point lay within 213 to 214 °C. With `Cc1cc(C(=O)N2Cc3cccn3Cc3ccccc32)ccc1C1=CCCCC1C(C)(C)C` (stereo unspecified) the figure was 127 to 129 °C; with `CCOC(=O)c1cc(C#N)c(C)nc1O`, 212 to 213 °C; with `COc1ccccc1N1CCN(CCn2cnc3sc4c(c3c2=O)CCN(C(C)=O)C4)CC1`, 170 to 172 °C. For `Cc1ccc(C(=O)c2[nH]c3ccc(Cl)cc3c2CC(=O)O)nc1` the value was 247 to 248 °C; for `Cn1cc(C2=C(c3c4n(c5ccccc35)CCC(CCN)C4)C(=O)NC2=O)c2ccccc21` (stereo unspecified), 160 to 165 °C; for `Cc1cc(C)n(-c2ncc(Cl)c(NC3CCCCC3)n2)n1`, 90 to 99 °C. Turning to `CCOC(=O)/C(C)=C/c1ccc(Br)cc1`, the melting point amounted to 82 °C. Molecule `COC(=O)C(CCc1ccc(C#N)cc1)C(N)=O` (stereo unspecified) registered a melting point of 125 °C. `CC(C)c1c(C(=O)Cl)n(-c2ccc(F)cc2)c(=O)c2ccccc12`: the melting point is 113 to 115 °C.

With `COc1nccc(N[C@H]2CC[C@H](c3ccccc3)CC2)c1Br`, the melting point was 105 °C. For `CCc1nsc(C(=O)NC(C)C)c1C(=O)O` the value was 138 to 140 °C.

In turn, `FC(F)(F)c1ccc2c(Cl)nccc2n1` returned a melting point of 90 °C. `CCCc1nc2c(N)nc(C)c(C)c2n1CCCCCS(=O)(=O)c1ccccc1` returned a melting point of 134 to 136 °C.

`Cc1ccccc1CC(=O)c1c(O)c2cccnc2n(-c2cccc(OC(F)(F)F)c2)c1=O` returned a melting point of 132 to 134 °C. In turn, `COC(=O)/C=C(\C)CSc1nc(N)cc(Cl)n1` gave a melting point of 134 to 136 °C. Molecule `O=C(O)COc1ccc(OCC2CCN(c3ccncc3)CC2)cc1` gave a melting point of 278 to 281 °C. With `COc1ccc(C)cc1NC(=O)Nc1ccc2c(c1)CCN(C(=O)Nc1ccc(OCCO)cc1C(F)(F)F)C2` the figure was 122 to 124 °C; with `COC(=O)CCc1oc(Cl)nc1-c1ccc(Cl)cc1`, 71 to 72 °C; with `NS(=O)(=O)c1ccc(NCC(=O)NC2CCCCC2)cc1`, 223 to 225 °C. For `Cc1nc2cc(Nc3ncc4ccc(-c5cccc(S(=O)(=O)NC(C)(C)C)c5)n4n3)ccc2o1` the value was 212 to 214 °C. For `CC(C)CNc1c([N+](=O)[O-])cnc2ccccc12` the value was 114 to 118 °C; for `Cc1cccc(N(C)c2n[nH]c3ncnc(Nc4cccc(Cl)c4)c23)n1`, 231 to 233 °C. The molecule `Cc1cc(C#N)cc(C)c1OCCCCCc1cc(CO)no1` had a melting point of 63 to 64 °C. The molecule `CCN(CC)C(=O)c1cc[nH]c1C` registered a melting point of 120 to 121 °C. Consider `CNC(=O)C(Cc1ccccc1)NC(=O)Nc1n[nH]c(=S)s1` (stereo unspecified), for which the melting point worked out at 228 °C. `COc1cn(-c2ccc(-c3cnn(C(F)F)c3)cc2F)nc(-c2ccnn2-c2ccccc2)c1=O` registered a melting point of 185 to 187 °C. Consider `O=C(c1ccc(Cl)cc1)c1cccc(CBr)c1`, for which the melting point was in the range of 123 to 125 °C. For `CCCCSC(Cn1cncn1)c1ccc(Cl)cc1Cl` (stereo unspecified) the value was 143 °C; for `CNc1cc(-n2ccc3ccccc32)cc(C)n1`, 156 to 158 °C. `CSCC[C@H](NC(=O)OC(C)(C)C)C(=O)NCC(=O)Oc1c(Cl)c(Cl)c(Cl)c(Cl)c1Cl`: the melting point is 169 to 171 °C. For `COc1ccc(C(C)(O)c2cccc(OCc3nc(-c4ccccc4)oc3C)c2)c(OCCOC(C)=O)c1` (stereo unspecified) the value was 144 to 145 °C; for `CC(=O)c1[nH]cnc1C`, 140 to 142 °C; for `FC(F)(F)c1cc(Cl)c(-n2cc(C#CBr)c(C(F)(F)F)n2)c(Cl)c1`, 92 to 94 °C.

In the case of `CC1(c2ccccc2)OC(=O)COC1=O` (stereo unspecified), the melting point fell in the range of 90 to 91 °C. In turn, `Cc1cccc(C2SCCCS2)n1` had a melting point of 74 °C. `C=CCN1C(C)(C)CC(OC(=O)CCC(C)(c2ccc(O)c(C(C)(C)C)c2)c2ccc(O)c(C(C)(C)C)c2)CC1(C)C`: the melting point came to 197 °C. For `COC(=O)CCCC(=O)Nc1cccc(Br)n1` the value was 128 to 131 °C.
